Experiments:
HCT-15 = assay: Antiproliferative activity against human HCT15 cells assessed as reduction in cell viability after 72 hrs by MTT assay; format: functional, cell-based; conditions: HCT-15, 72 h
[1] = target: TGF-beta receptor type-2 (Homo sapiens) (UniProt P37173); assay: Inhibition of human TGFBR2 (188 to end residues) using myelin basic protein as substrate measured after 120 mins in presence of [gamma33P]ATP by scintillation counting method; parameters: scale not given: the % may be the effect or the level left
[2] = system: Serine/threonine-protein kinase Nek4 (Homo sapiens), P51957 [P225A]; assay: Inhibition of recombinant full-length human NEK4 P225A mutant assessed as residual activity at 10 uM using myelin basic protein as substrate measured after 40 mins in presence of [gamma33P]ATP by scintillation counting method
[3] = target: Myosin light chain kinase 2, skeletal/cardiac muscle (Homo sapiens) (UniProt Q9H1R3); assay: Inhibition of recombinant full-length human MYLK2 assessed as residual activity at 10 uM using KKLNRTLSFAEPG as substrate measured after 40 mins in presence of [gamma33P]ATP by scintillation counting method
[4] = target: Muscle, skeletal receptor tyrosine-protein kinase (Homo sapiens) (UniProt O15146); assay: Inhibition of recombinant human MuSK (530 to end residues) assessed as residual activity at 10 uM using myelin basic protein as substrate measured after 40 mins in presence of [gamma33P]ATP by scintillation counting method
[5] = system: Hepatocyte growth factor receptor (Homo sapiens), P08581 [Y1230D]; assay: Inhibition of recombinant human MET A1209G/V1290L/Y1248D mutant (974 to end residues) assessed as residual activity at 10 uM using KKKGQEEEYVFIE as substrate measured after 40 mins in presence of [gamma33P]ATP by scintillation counting method
Mus musculus = species on record: Mus musculus; assay: Inhibition of recombinant full-length mouse PI3K p110beta/p85beta R123L mutant assessed as residual activity at 10 uM using phosphatidylinositol-4, 5-bisphosphate as substrate measured after 40 mins by HTRF assay
[6] = system: Tyrosine-protein kinase receptor UFO (Homo sapiens), P30530 [Q764R]; assay: Inhibition of recombinant human AXL Q764R mutant (473 to end residues) assessed as residual activity at 10 uM using KKSRGDYMTMQIG as substrate measured after 40 mins in presence of [gamma33P]ATP by scintillation counting method
Sequence of Tyrosine-protein kinase receptor UFO (Homo sapiens), P30530 [Q764R] (P30530 whole entry Q764R): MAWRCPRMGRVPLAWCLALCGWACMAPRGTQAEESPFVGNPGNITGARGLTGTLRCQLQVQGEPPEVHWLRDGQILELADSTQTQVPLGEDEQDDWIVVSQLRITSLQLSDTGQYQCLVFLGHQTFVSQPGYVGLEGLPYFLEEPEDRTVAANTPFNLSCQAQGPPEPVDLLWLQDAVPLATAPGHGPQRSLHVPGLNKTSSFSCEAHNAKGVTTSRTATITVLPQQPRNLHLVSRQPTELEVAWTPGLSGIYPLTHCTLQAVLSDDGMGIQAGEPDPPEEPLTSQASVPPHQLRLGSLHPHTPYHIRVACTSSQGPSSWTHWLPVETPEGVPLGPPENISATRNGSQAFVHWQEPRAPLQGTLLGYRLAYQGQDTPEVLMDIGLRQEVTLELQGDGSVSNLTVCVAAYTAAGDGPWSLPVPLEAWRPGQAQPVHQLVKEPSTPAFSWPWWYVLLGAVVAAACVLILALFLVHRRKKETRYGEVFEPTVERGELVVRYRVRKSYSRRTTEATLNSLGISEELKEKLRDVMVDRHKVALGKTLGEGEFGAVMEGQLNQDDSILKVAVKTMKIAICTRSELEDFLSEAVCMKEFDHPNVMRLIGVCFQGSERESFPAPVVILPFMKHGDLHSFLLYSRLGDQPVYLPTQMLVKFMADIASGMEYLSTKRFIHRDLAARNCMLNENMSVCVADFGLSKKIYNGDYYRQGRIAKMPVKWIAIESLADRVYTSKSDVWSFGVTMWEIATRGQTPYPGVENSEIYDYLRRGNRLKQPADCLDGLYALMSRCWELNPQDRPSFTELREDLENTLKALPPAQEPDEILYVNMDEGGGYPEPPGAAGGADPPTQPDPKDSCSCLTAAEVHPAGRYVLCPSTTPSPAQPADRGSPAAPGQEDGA

[7] = target: Serine/threonine-protein kinase BRSK1 (Homo sapiens) (UniProt Q8TDC3); assay: Inhibition of recombinant human BrSK1 (2 to end residues) assessed as residual activity at 10 uM using KKKVSRSGLYRSPSMPENLNRPR as substrate measured after 120 mins in presence of [gamma33P]ATP by scintillation counting method
[8] = target: Inhibitor of nuclear factor kappa-B kinase subunit beta (Homo sapiens) (UniProt O14920); assay: Inhibition of recombinant full-length human IKKbeta assessed as residual activity at 10 uM using peptide substrate measured after 40 mins in presence of [gamma33P]ATP by scintillation counting method
[9] = target: Citron Rho-interacting kinase (Homo sapiens) (UniProt O14578); assay: Inhibition of recombinant human CRIK assessed as residual activity at 10 uM using KKLRRTLSVA as substrate measured after 120 mins in presence of [gamma33P]ATP by scintillation counting method
[10] = target: AP2-associated protein kinase 1 (Homo sapiens) (UniProt Q2M2I8); assay: Inhibition of human AAK1 assessed as residual activity at 10 uM using peptide substrate measured after 120 mins in presence of [gamma33P]ATP by scintillation counting method
Sequence of AP2-associated protein kinase 1 (Homo sapiens) (Q2M2I8 whole entry, looked up): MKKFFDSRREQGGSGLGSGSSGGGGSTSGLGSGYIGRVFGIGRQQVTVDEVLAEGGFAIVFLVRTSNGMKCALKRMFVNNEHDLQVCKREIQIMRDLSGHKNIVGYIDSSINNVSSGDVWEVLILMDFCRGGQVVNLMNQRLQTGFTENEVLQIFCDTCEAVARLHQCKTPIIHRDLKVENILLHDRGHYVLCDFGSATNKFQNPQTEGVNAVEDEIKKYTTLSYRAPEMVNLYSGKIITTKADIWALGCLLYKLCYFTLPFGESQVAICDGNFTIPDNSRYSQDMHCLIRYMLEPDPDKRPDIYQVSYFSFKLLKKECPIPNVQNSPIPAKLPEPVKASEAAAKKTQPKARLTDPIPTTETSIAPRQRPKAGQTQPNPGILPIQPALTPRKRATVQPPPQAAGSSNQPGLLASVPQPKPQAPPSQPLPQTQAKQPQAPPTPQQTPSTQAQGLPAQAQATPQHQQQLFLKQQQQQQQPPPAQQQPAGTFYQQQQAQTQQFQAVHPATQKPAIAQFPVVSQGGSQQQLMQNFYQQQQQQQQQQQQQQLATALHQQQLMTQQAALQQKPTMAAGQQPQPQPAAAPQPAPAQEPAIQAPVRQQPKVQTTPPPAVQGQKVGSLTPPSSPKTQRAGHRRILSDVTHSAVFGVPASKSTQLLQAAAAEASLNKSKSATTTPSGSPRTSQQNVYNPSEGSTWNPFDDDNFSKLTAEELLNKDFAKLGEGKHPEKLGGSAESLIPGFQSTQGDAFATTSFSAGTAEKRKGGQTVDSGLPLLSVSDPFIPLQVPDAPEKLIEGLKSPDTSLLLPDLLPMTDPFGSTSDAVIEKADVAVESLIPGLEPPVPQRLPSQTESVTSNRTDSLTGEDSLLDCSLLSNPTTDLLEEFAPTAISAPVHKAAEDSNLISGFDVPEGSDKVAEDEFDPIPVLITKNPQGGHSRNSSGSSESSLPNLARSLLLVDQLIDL

[11] = target: CDK3/Cyclin E (Homo sapiens) (UniProt P24864+Q00526); assay: Inhibition of recombinant full-length human CDK3/cyclinE assessed as residual activity at 10 uM using histone H1 as substrate measured after 40 mins in presence of [gamma33P]ATP by scintillation counting method; format: protein-complex assay
Sequence of CDK3/Cyclin E (Homo sapiens) (P24864 whole entry, looked up): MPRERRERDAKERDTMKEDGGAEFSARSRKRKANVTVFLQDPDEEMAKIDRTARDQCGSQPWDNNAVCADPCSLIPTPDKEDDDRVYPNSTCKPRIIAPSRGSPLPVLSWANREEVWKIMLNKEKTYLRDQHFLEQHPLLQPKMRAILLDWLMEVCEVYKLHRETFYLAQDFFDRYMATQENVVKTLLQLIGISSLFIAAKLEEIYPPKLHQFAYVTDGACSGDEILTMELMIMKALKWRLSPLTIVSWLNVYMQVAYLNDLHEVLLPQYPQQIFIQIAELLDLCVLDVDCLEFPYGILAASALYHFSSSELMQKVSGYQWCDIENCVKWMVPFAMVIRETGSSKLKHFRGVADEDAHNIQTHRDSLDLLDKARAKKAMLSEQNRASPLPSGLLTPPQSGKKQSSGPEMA
Sequence of CDK3/Cyclin E (Homo sapiens) (Q00526 whole entry, looked up): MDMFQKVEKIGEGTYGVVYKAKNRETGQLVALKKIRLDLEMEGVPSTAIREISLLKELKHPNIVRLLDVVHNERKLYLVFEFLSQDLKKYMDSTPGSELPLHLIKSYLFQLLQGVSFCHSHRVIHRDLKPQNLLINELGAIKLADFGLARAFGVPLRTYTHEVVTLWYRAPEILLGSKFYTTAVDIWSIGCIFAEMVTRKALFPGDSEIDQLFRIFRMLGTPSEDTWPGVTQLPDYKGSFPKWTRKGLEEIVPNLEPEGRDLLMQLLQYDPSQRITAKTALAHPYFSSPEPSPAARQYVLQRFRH

[12] = Toxicity in nude BALB/c mouse xenografted with human HCT116 cells assessed as change in body weight at 80 mg/kg, po administered once daily for 4 weeks measured every 3 days during compound dosing; format: organism-based; conditions: in vivo
[13] = system: Casein kinase I isoform gamma-3 (Homo sapiens), Q9Y6M4 [UNDEFINED MUTATION]; assay: Inhibition of recombinant human CK1gamma3 K91E/R174G/E302D mutant (1 to 330 residues) assessed as residual activity at 10 uM using KRRRALS(p)VASLPGL as substrate measured after 40 mins in presence of [gamma33P]ATP by scintillation counting method
Sequence of Casein kinase I isoform gamma-3 (Homo sapiens), Q9Y6M4 [UNDEFINED MUTATION] (Q9Y6M4 whole entry, looked up, stated change not applied, the tested form may be a part, canonical isoform): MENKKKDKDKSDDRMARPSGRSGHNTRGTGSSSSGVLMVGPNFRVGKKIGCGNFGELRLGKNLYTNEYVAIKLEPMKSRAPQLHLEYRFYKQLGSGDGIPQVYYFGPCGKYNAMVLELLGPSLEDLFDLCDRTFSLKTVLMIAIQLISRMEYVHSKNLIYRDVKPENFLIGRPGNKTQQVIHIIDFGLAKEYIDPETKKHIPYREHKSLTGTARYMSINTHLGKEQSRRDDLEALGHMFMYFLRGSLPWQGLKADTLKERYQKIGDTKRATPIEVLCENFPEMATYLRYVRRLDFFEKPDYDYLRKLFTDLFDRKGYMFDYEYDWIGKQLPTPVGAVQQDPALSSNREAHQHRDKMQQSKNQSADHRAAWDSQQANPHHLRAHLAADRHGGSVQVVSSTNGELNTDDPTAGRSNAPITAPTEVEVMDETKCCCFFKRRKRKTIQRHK

[14] = system: Epidermal growth factor receptor (Homo sapiens), P00533 [T790M]; assay: Inhibition of recombinant human EGFR T790M mutant (696 to end residues) assessed as residual activity at 10 uM using GGMEDIYFEFMGGKKK as substrate measured after 40 mins in presence of [gamma33P]ATP by scintillation counting method
[15] = target: Receptor-type tyrosine-protein kinase FLT3 (Homo sapiens) (UniProt P36888); assay: Inhibition of recombinant human Flt3 (564 to end residues) assessed as residual activity at 10 uM using EAIYAAPFAKKK as substrate measured after 40 mins in presence of [gamma33P]ATP by scintillation counting method
[16] = target: G protein-coupled receptor kinase 6 (Homo sapiens) (UniProt P43250); assay: Inhibition of recombinant full-length human GRK6 assessed as residual activity at 10 uM using casein as substrate measured after 40 mins in presence of [gamma33P]ATP by scintillation counting method
[17] = target: Homeodomain-interacting protein kinase 1 (Homo sapiens) (UniProt Q86Z02); assay: Inhibition of recombinant human activated HIPK1 (158 to 555 residues) assessed as residual activity at 10 uM using myelin basic protein as substrate measured after 40 mins in presence of [gamma33P]ATP by scintillation counting method
Sequence of Homeodomain-interacting protein kinase 1 (Homo sapiens) (Q86Z02 whole entry, looked up, the tested form may be a part): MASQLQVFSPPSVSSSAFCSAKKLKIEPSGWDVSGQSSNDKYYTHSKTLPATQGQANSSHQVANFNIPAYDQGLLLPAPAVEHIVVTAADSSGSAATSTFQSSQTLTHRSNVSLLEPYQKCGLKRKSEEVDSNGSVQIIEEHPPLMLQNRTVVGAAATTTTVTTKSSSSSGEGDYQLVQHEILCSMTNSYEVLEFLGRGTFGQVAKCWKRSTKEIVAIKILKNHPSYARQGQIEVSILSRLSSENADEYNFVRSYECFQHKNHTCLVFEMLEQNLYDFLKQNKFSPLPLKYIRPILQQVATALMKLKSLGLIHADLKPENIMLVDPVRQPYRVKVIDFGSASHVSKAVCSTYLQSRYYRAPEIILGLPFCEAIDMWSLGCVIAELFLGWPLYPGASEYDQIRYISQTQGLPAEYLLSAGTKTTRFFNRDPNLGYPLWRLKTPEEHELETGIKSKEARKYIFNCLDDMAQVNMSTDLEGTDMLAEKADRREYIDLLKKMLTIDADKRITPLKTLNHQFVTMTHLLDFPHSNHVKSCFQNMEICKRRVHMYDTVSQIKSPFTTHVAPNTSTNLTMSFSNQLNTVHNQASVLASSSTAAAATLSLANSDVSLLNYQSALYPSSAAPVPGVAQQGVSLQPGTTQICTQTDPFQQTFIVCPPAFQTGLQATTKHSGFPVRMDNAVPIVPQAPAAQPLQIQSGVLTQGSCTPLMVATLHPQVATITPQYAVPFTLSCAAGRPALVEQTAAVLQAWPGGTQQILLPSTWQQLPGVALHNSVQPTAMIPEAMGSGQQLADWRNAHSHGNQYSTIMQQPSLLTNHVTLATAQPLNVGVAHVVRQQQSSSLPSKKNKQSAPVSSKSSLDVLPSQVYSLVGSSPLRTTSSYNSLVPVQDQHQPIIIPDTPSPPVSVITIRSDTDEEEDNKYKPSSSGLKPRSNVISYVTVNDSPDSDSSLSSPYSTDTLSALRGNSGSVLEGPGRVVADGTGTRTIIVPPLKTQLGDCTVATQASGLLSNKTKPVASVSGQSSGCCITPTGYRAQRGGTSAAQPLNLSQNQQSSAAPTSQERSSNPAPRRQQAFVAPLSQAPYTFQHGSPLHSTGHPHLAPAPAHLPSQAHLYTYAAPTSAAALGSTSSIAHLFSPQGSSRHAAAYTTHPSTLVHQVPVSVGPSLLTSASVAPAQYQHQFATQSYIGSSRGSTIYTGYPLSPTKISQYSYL

Homo sapiens = species on record: Homo sapiens; assay: Inhibition of recombinant human Plk4 S34T mutant (1 to 273 residues) assessed as residual activity at 10 uM using casein as substrate measured after 40 mins in presence of [gamma33P]ATP by scintillation counting method
[18] = target: cAMP-dependent protein kinase catalytic subunit PRKX (Homo sapiens) (UniProt P51817); assay: Inhibition of recombinant full-length human PrKX assessed as residual activity at 10 uM using RRRLSFAEPG as substrate measured after 40 mins in presence of [gamma33P]ATP by scintillation counting method
Sequence of cAMP-dependent protein kinase catalytic subunit PRKX (Homo sapiens) (P51817 whole entry): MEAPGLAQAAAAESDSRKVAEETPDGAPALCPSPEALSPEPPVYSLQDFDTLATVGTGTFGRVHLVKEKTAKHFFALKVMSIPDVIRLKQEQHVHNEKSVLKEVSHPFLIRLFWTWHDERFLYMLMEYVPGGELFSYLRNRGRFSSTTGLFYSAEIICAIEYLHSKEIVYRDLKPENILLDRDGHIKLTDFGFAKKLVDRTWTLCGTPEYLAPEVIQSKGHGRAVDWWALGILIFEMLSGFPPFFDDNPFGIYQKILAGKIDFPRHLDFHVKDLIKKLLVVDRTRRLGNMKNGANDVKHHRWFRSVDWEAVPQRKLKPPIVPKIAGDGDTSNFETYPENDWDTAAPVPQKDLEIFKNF

[19] = target: Serine/threonine-protein kinase 32B (Homo sapiens) (UniProt Q9NY57); assay: Inhibition of recombinant full-length human STK32B assessed as residual activity at 10 uM using casein as substrate measured after 120 mins in presence of [gamma33P]ATP by scintillation counting method
Sequence of Serine/threonine-protein kinase 32B (Homo sapiens) (Q9NY57 whole entry): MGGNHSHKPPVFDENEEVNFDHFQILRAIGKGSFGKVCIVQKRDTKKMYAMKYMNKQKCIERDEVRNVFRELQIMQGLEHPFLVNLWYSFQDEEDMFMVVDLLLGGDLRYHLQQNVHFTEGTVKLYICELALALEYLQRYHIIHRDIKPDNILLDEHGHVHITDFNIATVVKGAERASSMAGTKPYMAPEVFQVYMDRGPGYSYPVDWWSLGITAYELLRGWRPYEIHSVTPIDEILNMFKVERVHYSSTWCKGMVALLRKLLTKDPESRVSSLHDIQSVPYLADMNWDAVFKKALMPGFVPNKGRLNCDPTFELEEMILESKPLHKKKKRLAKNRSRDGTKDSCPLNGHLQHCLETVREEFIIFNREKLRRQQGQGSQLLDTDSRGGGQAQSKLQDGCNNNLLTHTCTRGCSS

[20] = target: Phosphatidylinositol 4-phosphate 5-kinase type-1 alpha (Homo sapiens) (UniProt Q99755); assay: Inhibition of recombinant full-length human PIP5K1alpha assessed as residual activity at 10 uM using phosphatidylinositol 4-phosphate as substrate measured after 40 mins by HTRF assay
SW-620 = assay: Induction of apoptosis in human SW620 cells assessed as early apoptotic cells at 100 nM measured after 48 hrs by Annexin V-FITC/propidium iodide staining-based flow cytometry (reference value: 0.773%); format: functional

## Cc1cc(C)c(CNc2nc(Cl)nc3c2ncn3C2CCCC2)c(=O)[nH]1
HCT-15
  IC50: 61 nM
[1]
  Activity: 71%
[2]
  Activity: 104%
[3]
  Activity: 98%
[4]
  Activity: 114%
[5]
  Activity: 102%
Mus musculus
  Activity: 101%
[6]
  Activity: 107%
[7]
  Activity: 140%
[8]
  Activity: 102%
[9]
  Activity: 109%
[10]
  Activity: 105%
[11]
  Activity: 113%
[12]
  Activity: Non-Toxic
[13]
  Activity: 106%
[14]
  Activity: 102%
[15]
  Activity: 130%
[16]
  Activity: 104%
[17]
  Activity: 100%
Homo sapiens
  Activity: 98.5%
[18]
  Activity: 113%
[19]
  Activity: 98%
[20]
  Activity: 100%
SW-620
  Activity: 3.55%

— ChEMBL document CHEMBL4311992, “Discovery of 3-(((9H-purin-6-yl)amino)methyl)-4,6-dimethylpyridin-2(1H)-one derivatives as novel tubulin polymerization inhibitors for treatment of cancer” (Eur J Med Chem, 2019)
